Results on ten compounds are retold here after patent publication US20070155764A1, “NOVEL SUBSTITUTED PYRIMIDINYLOXY UREAS USEFUL AS INHIBITORS OF PROTEIN KINASES” (KALYPSYS, INC., priority 2005, published 2007).

Holding throughout (format): biochemical
Test [1] addresses T1, human B-Raf protein kinase (Homo sapiens, UniProt P15056).
T1 construct: GST (N); purchased Upstate Inc. 14-530 (B-Raf); 14-420 (Mek1)
Put plainly: In vitro B-Raf/Mek1 composite kinase assay. The settings on record: recombinant GST-tagged human B-Raf (Δ1-415) with inactive Mek1, 2 μM ATP. The method, boiled down: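 Luminescent ATP-depletion assay using recombinant N-terminal GST-tagged human B-Raf (Δ1-415, 1 ng/well) in MOPS pH 7.2 buffer with 10 mM MgCl2. Compounds were preincubated 15 min at about 22° C, then the reaction ran 2 h before PKLight readout. Efficacy is expressed as percentage of positive-control (Bay 43-9006) activity.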

For a further test, the target named is T2, VEGFR2 kinase (Homo sapiens, UniProt P35968).
T2 construct: purchased Invitrogen Inc PV3660
T2 sequence (P35968 20-1356): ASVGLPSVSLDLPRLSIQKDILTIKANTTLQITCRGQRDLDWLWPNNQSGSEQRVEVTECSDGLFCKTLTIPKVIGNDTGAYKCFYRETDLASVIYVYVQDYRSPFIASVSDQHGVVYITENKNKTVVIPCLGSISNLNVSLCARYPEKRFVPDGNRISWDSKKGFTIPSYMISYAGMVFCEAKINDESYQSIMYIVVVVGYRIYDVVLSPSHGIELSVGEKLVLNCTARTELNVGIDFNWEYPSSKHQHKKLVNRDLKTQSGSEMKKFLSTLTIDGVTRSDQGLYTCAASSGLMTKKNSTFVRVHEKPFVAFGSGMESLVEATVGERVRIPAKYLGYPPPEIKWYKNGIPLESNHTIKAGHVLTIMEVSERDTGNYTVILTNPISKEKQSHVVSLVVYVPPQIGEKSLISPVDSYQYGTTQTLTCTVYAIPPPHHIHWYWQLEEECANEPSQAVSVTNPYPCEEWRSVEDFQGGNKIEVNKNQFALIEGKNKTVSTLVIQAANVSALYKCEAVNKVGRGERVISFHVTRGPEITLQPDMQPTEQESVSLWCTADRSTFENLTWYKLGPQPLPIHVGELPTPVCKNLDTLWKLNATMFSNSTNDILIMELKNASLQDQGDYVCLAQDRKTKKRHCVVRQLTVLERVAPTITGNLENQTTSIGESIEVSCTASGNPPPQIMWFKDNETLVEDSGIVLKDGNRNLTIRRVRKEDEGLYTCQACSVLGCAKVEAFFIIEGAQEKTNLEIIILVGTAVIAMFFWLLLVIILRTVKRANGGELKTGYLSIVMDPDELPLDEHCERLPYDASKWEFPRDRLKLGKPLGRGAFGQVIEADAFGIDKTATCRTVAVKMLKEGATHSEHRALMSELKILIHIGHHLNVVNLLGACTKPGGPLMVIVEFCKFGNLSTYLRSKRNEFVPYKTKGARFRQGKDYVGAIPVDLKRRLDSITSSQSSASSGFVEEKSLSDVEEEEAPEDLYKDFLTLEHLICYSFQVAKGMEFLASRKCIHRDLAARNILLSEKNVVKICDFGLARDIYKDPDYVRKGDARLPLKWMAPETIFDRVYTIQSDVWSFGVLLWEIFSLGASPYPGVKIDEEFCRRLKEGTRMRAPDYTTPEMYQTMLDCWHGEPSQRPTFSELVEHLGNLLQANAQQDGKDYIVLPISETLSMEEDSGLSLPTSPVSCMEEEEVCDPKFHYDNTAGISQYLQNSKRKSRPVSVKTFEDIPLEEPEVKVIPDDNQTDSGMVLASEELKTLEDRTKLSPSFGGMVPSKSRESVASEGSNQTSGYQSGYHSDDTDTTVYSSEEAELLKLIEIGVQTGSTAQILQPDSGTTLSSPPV
Briefly: In vitro VEGFR2 kinase assay. Conditions: ADP Quest assay, poly Glu:Tyr substrate, 60 μM ATP. The method, boiled down: (§1)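 Compound was preincubated 10 min at ~22 °C with 20 ng VEGFR2 or 25 ng PDGFRβ, then poly Glu:Tyr (4:1) substrate (0.25 μg) with 60 μM ATP (in added buffer) was reacted 2 h at 30 °C. ADP Quest resorufin fluorescence was read (ex 530/em 580) after 30 min. Efficacy is expressed as percent of positive-control (Bay 43-9006) activity, with DMSO as negative control.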

The target in a further test is T3, PDGFRβ kinase (Homo sapiens, UniProt P09619).
T3 construct: purchased Invitrogen Inc. P3082
T3 sequence (P09619 33-1106): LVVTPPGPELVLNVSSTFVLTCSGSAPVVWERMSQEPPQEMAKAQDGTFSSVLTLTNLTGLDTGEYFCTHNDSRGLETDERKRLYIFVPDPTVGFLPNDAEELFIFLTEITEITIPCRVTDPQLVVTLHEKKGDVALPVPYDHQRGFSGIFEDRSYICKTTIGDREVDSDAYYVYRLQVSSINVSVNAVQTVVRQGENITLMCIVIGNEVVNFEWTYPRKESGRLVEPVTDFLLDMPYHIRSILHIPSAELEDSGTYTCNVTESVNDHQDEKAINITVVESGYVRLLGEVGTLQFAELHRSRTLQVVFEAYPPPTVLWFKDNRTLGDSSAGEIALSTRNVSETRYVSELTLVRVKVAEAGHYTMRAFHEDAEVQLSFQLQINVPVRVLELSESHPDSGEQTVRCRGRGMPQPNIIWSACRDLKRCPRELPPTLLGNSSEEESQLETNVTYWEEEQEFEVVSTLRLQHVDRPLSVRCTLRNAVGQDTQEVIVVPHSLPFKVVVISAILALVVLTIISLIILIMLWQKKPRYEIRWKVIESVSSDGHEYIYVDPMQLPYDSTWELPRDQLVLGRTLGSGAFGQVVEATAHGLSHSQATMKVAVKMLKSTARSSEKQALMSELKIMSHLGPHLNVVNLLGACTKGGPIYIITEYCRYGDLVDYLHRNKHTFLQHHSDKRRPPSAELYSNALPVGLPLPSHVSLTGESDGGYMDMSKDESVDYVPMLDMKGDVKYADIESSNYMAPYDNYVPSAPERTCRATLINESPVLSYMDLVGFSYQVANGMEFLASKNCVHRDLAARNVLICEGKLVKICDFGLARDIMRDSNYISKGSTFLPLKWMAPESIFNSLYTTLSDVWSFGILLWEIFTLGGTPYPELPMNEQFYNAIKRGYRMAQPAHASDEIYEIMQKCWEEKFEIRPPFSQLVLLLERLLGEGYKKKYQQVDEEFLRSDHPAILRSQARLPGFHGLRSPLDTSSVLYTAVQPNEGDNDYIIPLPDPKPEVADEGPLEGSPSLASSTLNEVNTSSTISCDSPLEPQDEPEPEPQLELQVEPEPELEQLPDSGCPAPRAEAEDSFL
Put plainly: In vitro PDGFRβ kinase assay. The settings on record: ADP Quest assay, poly Glu:Tyr substrate, 60 μM ATP. The method, boiled down: as §1

pIC50: −log10 of the molar value.

T1 sequence (P15056 416-766): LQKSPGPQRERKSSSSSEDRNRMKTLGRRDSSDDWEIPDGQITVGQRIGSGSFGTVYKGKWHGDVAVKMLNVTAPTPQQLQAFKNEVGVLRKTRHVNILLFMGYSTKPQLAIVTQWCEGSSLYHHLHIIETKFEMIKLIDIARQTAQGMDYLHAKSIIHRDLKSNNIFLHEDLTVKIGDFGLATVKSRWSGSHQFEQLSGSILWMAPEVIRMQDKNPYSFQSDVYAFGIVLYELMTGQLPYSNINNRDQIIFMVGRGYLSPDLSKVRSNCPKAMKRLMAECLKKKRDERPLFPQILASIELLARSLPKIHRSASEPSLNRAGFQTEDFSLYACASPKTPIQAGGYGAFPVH

Regarding `CNC(=O)Cn1ccc(-c2cc(Oc3cccc(NC(=O)Nc4ccc(Cl)c(C(F)(F)F)c4)c3)ncn2)n1` [Example 60, 2-(3-(6-(3-(3-(4-Chloro-3-(trifluoromethyl)phenyl)ureido)phenoxy)pyrimidin-4-yl)-1H-pyrazol-1-yl)-N-methylacetamide], the pIC50 (in test [1]; against VEGFR2 kinase; at PDGFRβ kinase) was no less than 5.00 throughout.

For `Cn1ccc(-c2cc(Oc3cccc(NC(=O)Nc4ccc(Cl)c(C(F)(F)F)c4)c3)ncn2)n1` [Example 61, 1-(4-Chloro-3-(trifluoromethyl)phenyl)-3-(3-(6-(1-methyl-1H-pyrazol-3-yl)pyrimidin-4-yloxy)phenyl)urea], the pIC50 in test [1] is no less than 5.00; on VEGFR2 kinase, less than 5.00; against PDGFRβ kinase it was less than 5.00.

As to `Cn1nccc1-c1cc(Oc2cccc(NC(=O)Nc3ccc(Cl)c(C(F)(F)F)c3)c2)ncn1` [Example 62, 1-(4-Chloro-3-(trifluoromethyl)phenyl)-3-(3-(6-(1-methyl-1H-pyrazol-5-yl)pyrimidin-4-yloxy)phenyl)urea], the pIC50 (in test [1]; against VEGFR2 kinase; against PDGFRβ kinase) was no less than 5.00 each time.

On to `O=C(Nc1cccc(Oc2cc(-c3ccn(CCO)n3)ncn2)c1)Nc1ccc(Cl)c(C(F)(F)F)c1` [Example 63, 1-(4-Chloro-3-(trifluoromethyl)phenyl)-3-(3-(6-(1-(2-hydroxyethyl)-1H-pyrazol-3-yl)pyrimidin-4-yloxy)phenyl)urea], for which the pIC50 was no less than 5.00 in test [1], less than 5.00 on VEGFR2 kinase and less than 5.00 at PDGFRβ kinase.

In the case of `N#CCn1cc(-c2cc(Oc3cccc(NC(=O)Nc4ccc(Cl)c(C(F)(F)F)c4)c3)ncn2)cn1` [Example 64, 1-(4-Chloro-3-(trifluoromethyl)phenyl)-3-(3-(6-(1-(cyanomethyl)-1H-pyrazol-4-yl)pyrimidin-4-yloxy)phenyl)urea], the pIC50 (in test [1]; at VEGFR2 kinase; against PDGFRβ kinase) was no less than 5.00 in each case.

For `Cn1cc(-c2nccc(Oc3cc(NC(=O)Nc4ccc(Cl)c(C(F)(F)F)c4)c(F)cc3F)n2)cn1` [Example 67, 1-(4-Chloro-3-(trifluoromethyl)phenyl)-3-(2,4-difluoro-5-(2-(1-methyl-1H-pyrazol-4-yl)pyrimidin-4-yloxy)phenyl)urea], the pIC50 (in test [1]; on VEGFR2 kinase; on PDGFRβ kinase) was no less than 5.00 in each case.

On to `CC(C)n1cc(-c2cc(Oc3cccc(NC(=O)Nc4ccc(Cl)c(C(F)(F)F)c4)c3)ncn2)cn1` [Example 68, 1-(4-Chloro-3-(trifluoromethyl)phenyl)-3-(3-(6-(1-isopropyl-1H-pyrazol-4-yl)pyrimidin-4-yloxy)phenyl)urea], for which the pIC50 in test [1] was no less than 5.00; against VEGFR2 kinase it was less than 5.00; against PDGFRβ kinase, no less than 5.00.

In the case of `Cc1nn(C)c(C)c1-c1cc(Oc2cccc(NC(=O)Nc3ccc(Cl)c(C(F)(F)F)c3)c2)ncn1` [Example 69, 1-(4-Chloro-3-(trifluoromethyl)phenyl)-3-(3-(6-(1,3,5-trimethyl-1H-pyrazol-4-yl)pyrimidin-4-yloxy)phenyl)urea], the pIC50 in test [1] was no less than 5.00; on VEGFR2 kinase, less than 5.00; against PDGFRβ kinase, less than 5.00.

Consider `Cc1nn(C)c(C)c1-c1cc(Oc2ccc(NC(=O)Nc3ccc(Cl)c(C(F)(F)F)c3)cc2)ncn1` [Example 70, 1-(4-Chloro-3-(trifluoromethyl)phenyl)-3-(4-(6-(1,3,5-trimethyl-1H-pyrazol-4-yl)pyrimidin-4-yloxy)phenyl)urea], for which the pIC50 in test [1] was less than 5.00; against VEGFR2 kinase, less than 5.00; against PDGFRβ kinase, no less than 5.00.

Regarding `Cn1cc(-c2nccc(Oc3cccc(NC(=O)Nc4ccc(Cl)c(C(F)(F)F)c4)c3)n2)cn1` [Example 71, 1-(4-Chloro-3-(trifluoromethyl)phenyl)-3-(3-(2-(1-methyl-1H-pyrazol-4-yl)pyrimidin-4-yloxy)phenyl)urea], the pIC50 (in test [1]; against VEGFR2 kinase; at PDGFRβ kinase) was no less than 5.00 throughout.

By pIC50 is commonly meant the negative decadic logarithm of the IC50, by convention in mol/L.
